# Reference: patent US9914730B2, “Azaquinazoline inhibitors of Atypical protein Kinase C” (Ignyta, Inc., priority 2012, dated 2018)
# pIC50: −log10 of the molar value.
# Target: T1, full-length human PKCι (Homo sapiens, UniProt P41743)
# T1 construct: Recombinant, full-length human PKCι expressed in Sf21 insect cells is also commercially available; purchased; host or cells: Sf21 insect cells
# T1 sequence (P41743 1-596): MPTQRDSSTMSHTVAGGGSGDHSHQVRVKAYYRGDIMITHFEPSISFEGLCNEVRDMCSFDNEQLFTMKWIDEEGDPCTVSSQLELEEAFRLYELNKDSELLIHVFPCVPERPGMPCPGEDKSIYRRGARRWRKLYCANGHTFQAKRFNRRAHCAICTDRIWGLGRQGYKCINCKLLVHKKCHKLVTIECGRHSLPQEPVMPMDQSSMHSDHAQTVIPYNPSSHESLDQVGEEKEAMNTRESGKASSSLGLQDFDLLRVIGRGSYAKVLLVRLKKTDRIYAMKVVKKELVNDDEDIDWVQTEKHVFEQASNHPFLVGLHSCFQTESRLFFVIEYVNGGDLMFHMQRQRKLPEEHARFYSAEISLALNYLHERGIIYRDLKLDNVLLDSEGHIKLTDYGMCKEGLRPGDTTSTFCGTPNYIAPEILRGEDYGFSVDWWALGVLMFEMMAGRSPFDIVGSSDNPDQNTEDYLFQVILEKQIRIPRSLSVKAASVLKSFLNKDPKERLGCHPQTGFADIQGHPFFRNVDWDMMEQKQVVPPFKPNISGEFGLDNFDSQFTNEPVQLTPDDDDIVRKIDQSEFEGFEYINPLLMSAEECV
# Test: PKCι IC50 IMAP assay, full-length PKCι at 150 μM ATP
# Format: biochemical
# Conditions: read-out: IC50 in IMAP assay against full length PKCi at 150 μM ATP
# In short: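 Phosphorylation of a 5FAM-tagged PKCε pseudopeptide-derived substrate (100 nM) by full-length recombinant human PKCι was monitored by IMAP fluorescence polarisation. ATP was held at 150 μM, five times its apparent KM, with 60 min room-temperature incubation.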
row,Structure (SMILES),pIC50
1,"COc1cncc2nc(-c3ccnc(Nc4ccccc4)c3)nc(N3CCN[C@H](CF)C3)c12 [Example 235, {4-[4-((S)-3-Fluoro-methyl-piperazin-1-yl)-5-methoxy-pyrido[3,4-d]pyrimidin-2-yl]-pyridin-2-yl}-phenyl-amine]",6.00 to 7.00
2,COc1cncc2nc(-c3ccnc(Nc4ccccc4)c3)nc(N3CCN[C@@H](C4CC4)C3)c12 [Example 236],6.00 to 7.00
3,"COc1cncc2nc(-c3ccnc(Nc4c(F)ccc(F)c4F)c3)nc(N3CCN[C@@H](CF)C3)c12 [Example 237, {4-[4-((R)-3-Fluoromethyl-piperazin-1-yl)-5-methoxy-pyrido[3,4-d]pyrimidin-2-yl]-pyridin-2-yl}-(2,3,6-trifluoro-phenyl)-amine]",5.00 to 6.00
4,"COc1cncc2nc(-c3ccnc(Nc4ccccc4)c3)nc(N[C@@H]3CCNC3)c12 [Example 238, [5-Methoxy-2-(2-phenylamino-pyridin-4-yl)-pyrido[3,4-d]pyrimidin-4-yl]-(R)-pyrrolidin-3-yl-amine]",> 7.00
5,"COc1cncc2nc(-c3ccnc(Nc4cnccn4)c3)nc(N[C@@H]3CCNC3)c12 [Example 239, {5-Methoxy-2-[2-(pyrazin-2-ylamino)-pyridin-4-yl]-pyrido[3,4-d]pyrimidin-4-yl}-(R)-pyrrolidin-3-yl-amine]",> 7.00
6,"COc1cncc2nc(-c3ccnc(NC(=O)c4cccs4)c3)nc(N[C@@H]3CCNC3)c12 [Example 240, Thiophene-2-carboxylic acid {4-[5-methoxy-4-((R)-pyrrolidin-3-ylamino)-pyrido[3,4-d]pyrimidin-2-yl]-pyridin-2-yl}-amide]",> 7.00
7,"COc1cncc2nc(-c3ccnc(NC4CCCC4)c3)nc(N3CCNCC3)c12 [Example 241, Cyclopentyl-[4-(5-methoxy-4-piperazin-1-yl-pyrido[3,4-d]pyrimidin-2-yl)-pyridin-2-yl]-amine]",> 7.00
8,"COc1cncc2nc(-c3ccnc(NC4CCCCC4)c3)nc(N3CCNCC3)c12 [Example 242, Cyclohexyl-[4-(5-methoxy-4-piperazin-1-yl-pyrido[3,4-d]pyrimidin-2-yl)-pyridin-2-yl]-amine]",> 7.00
9,"c1cnc(Nc2cc(-c3nc(N[C@@H]4CCNC4)c4ccncc4n3)ccn2)cn1 [Example 243, {2-[2-(Pyrazin-2-ylamino)-pyridin-4-yl]-pyrido[3,4-d]pyrimidin-4-yl}-(R)-pyrrolidin-3-yl-amine]",5.00 to 6.00
10,"COc1cncc2nc(-c3ccnc(Nc4ccccc4)c3)nc(N3CCC(CO)CC3)c12 [Example 244, {1-[5-Methoxy-2-(2-phenylamino-pyridin-4-yl)-pyrido[3,4-d]pyrimidin-4-yl]-piperidin-4-yl}-methanol]",5.00 to 6.00
11,"COc1cncc2nc(-c3ccnc(Nc4ccccc4)c3)nc(N[C@@H]3CCN(CC(N)=O)C3)c12 [Example 245, 2-{3-[5-Methoxy-2-(2-phenylamino-pyridin-4-yl)-pyrido[3,4-d]pyrimidin-4-ylamino]-R-pyrrolidin-1-yl}-acetamide]",5.00 to 6.00
12,"Clc1cncc2nc(-c3ccnc(Nc4ccccc4)c3)nc(N3CCNCC3)c12 [Example 246, [4-(5-Chloro-4-piperazin-1-yl-pyrido[3,4-d]pyrimidin-2-yl)-pyridin-2-yl]-phenyl-amine]",6.00 to 7.00
13,"Fc1ccccc1Nc1cc(-c2nc(N3CCNCC3)c3c(Cl)cncc3n2)ccn1 [Example 247, [4-(5-Chloro-4-piperazin-1-yl-pyrido[3,4-d]pyrimidin-2-yl)-pyridin-2-yl]-(2-fluoro-phenyl)-amine]",6.00 to 7.00
14,"Fc1ccccc1Nc1cc(-c2nc(N3CCNCC3)c3c(Nc4ccccc4F)cncc3n2)ccn1 [Example 248, (2-Fluoro-phenyl)-{2-[2-(2-fluoro-phenylamino)-pyridin-4-yl]-4-piperazin-1-yl-pyrido[3,4-d]pyrimidin-5-yl}-amine]",> 7.00
15,"C[C@H]1CN(c2nc(-c3ccnc(Nc4ccccc4)c3)nc3cncc(Cl)c23)CCN1 [Example 250, {4-[5-Chloro-4-((S)-3-methyl-piperazin-1-yl)-pyrido[3,4-d]pyrimidin-2-yl]-pyridin-2-yl}-phenyl-amine]",6.00 to 7.00
16,"CC(=O)Nc1cc(-c2nc(N3CCNCC3)c3c(Cl)cncc3n2)ccn1 [Example 251, N-[4-(5-Chloro-4-piperazin-1-yl-pyrido[3,4-d]pyrimidin-2-yl)-pyridin-2-yl]-acetamide]",6.00 to 7.00

row,Structure (SMILES),pIC50
1,"Fc1cccc(Nc2cc(-c3nc(N4CCNCC4)c4c(Cl)cncc4n3)ccn2)c1F [Example 252, [4-(5-Chloro-4-piperazin-1-yl-pyrido[3,4-d]pyrimidin-2-yl)-pyridin-2-yl]-(2,3-difluoro-phenyl)-amine]",6.00 to 7.00
2,"Fc1cccc(Nc2cc(-c3nc(N4CCNCC4)c4c(Cl)cncc4n3)ccn2)n1 [Example 253, [4-(5-Chloro-4-piperazin-1-yl-pyrido[3,4-d]pyrimidin-2-yl)-pyridin-2-yl]-(6-fluoro-pyridin-2-yl)-amine]",> 7.00
3,"Fc1cccc(F)c1Nc1cc(-c2nc(N3CCNCC3)c3c(Cl)cncc3n2)ccn1 [Example 254, [4-(5-Chloro-4-piperazin-1-yl-pyrido[3,4-d]pyrimidin-2-yl)-pyridin-2-yl]-(2,6-difluoro-phenyl)-amine]",> 7.00
4,"Fc1ccc(Nc2cc(-c3nc(N4CCNCC4)c4c(Cl)cncc4n3)ccn2)c(F)c1 [Example 255, [4-(5-Chloro-4-piperazin-1-yl-pyrido[3,4-d]pyrimidin-2-yl)-pyridin-2-yl]-(2,4-difluoro-phenyl)-amine]",6.00 to 7.00
5,"Cc1ccnc(Nc2cc(-c3nc(N4CCNCC4)c4c(Cl)cncc4n3)ccn2)c1 [Example 256, [4-(5-Chloro-4-piperazin-1-yl-pyrido[3,4-d]pyrimidin-2-yl)-pyridin-2-yl]-(4-methyl-pyridin-2-yl)-amine]",> 7.00
6,"Fc1ccc(F)c(Nc2cc(-c3nc(N4CCNCC4)c4c(Cl)cncc4n3)ccn2)c1F [Example 257, [4-(5-Chloro-4-piperazin-1-yl-pyrido[3,4-d]pyrimidin-2-yl)-pyridin-2-yl]-(2,3,6-trifluoro-phenyl)-amine]",6.00 to 7.00
7,"Fc1ccc(Nc2cc(-c3nc(N4CCNCC4)c4c(Cl)cncc4n3)ccn2)nc1 [Example 258, [4-(5-Chloro-4-piperazin-1-yl-pyrido[3,4-d]pyrimidin-2-yl)-pyridin-2-yl]-(5-fluoro-pyridin-2-yl)-amine]",> 7.00
8,"FC(F)(F)c1ccnc(Nc2cc(-c3nc(N4CCNCC4)c4c(Cl)cncc4n3)ccn2)c1 [Example 259, [4-(5-Chloro-4-piperazin-1-yl-pyrido[3,4-d]pyrimidin-2-yl)-pyridin-2-yl]-(4-trifluoromethyl-pyridin-2-yl)-amine]",> 7.00
9,"N#Cc1ccc(Nc2cc(-c3nc(N4CCNCC4)c4c(Cl)cncc4n3)ccn2)cn1 [Example 260, 5-[4-(5-Chloro-4-piperazin-1-yl-pyrido[3,4-d]pyrimidin-2-yl)-pyridin-2-ylamino]-pyridine-2-carbonitrile]",4.40 to 5.00
10,"Fc1ccc(F)c(Nc2cc(-c3nc(N4CCNCC4)c4c(Nc5c(F)ccc(F)c5F)cncc4n3)ccn2)c1F [Example 261, {4-Piperazin-1-yl-2-[2-(2,3,6-trifluoro-phenylamino)-pyridin-4-yl]-pyrido[3,4-d]pyrimidin-5-yl}-(2,3,6-trifluoro-phenyl)-amine]",6.00 to 7.00
11,"Fc1ccccc1Nc1cc(-c2nc(N3CCNCC3)c3c(C4CC4)cncc3n2)ccn1 [Example 263, [4-(5-Cyclopropyl-4-piperazin-1-yl-pyrido[3,4-d]pyrimidin-2-yl)-pyridin-2-yl]-(2-fluoro-phenyl)-amine]",> 7.00
12,"Fc1cccc(F)c1Nc1cc(-c2nc(N3CCNCC3)c3c(C4CC4)cncc3n2)ccn1 [Example 264, [4-(5-Cyclopropyl-4-piperazin-1-yl-pyrido[3,4-d]pyrimidin-2-yl)-pyridin-2-yl]-(2,6-difluoro-phenyl)-amine]",> 7.00
13,"N#Cc1ccnc(Nc2cc(-c3nc(N4CCNCC4)c4c(C5CC5)cncc4n3)ccn2)c1 [Example 265, 2-[4-(5-Cyclopropyl-4-piperazin-1-yl-pyrido[3,4-d]pyrimidin-2-yl)-pyridin-2-ylamino]-isonicotinonitrile]",> 7.00
14,"Fc1ccc(F)c(Nc2cc(-c3nc(N4CCNCC4)c4c(C5CC5)cncc4n3)ccn2)c1F [Example 266, [4-(5-Cyclopropyl-4-piperazin-1-yl-pyrido[3,4-d]pyrimidin-2-yl)-pyridin-2-yl]-(2,3,6-trifluoro-phenyl)-amine]",> 7.00
15,"Cc1ccnc(Nc2cc(-c3nc(N4CCNCC4)c4c(C5CC5)cncc4n3)ccn2)c1 [Example 267, [4-(5-Cyclopropyl-4-piperazin-1-yl-pyrido[3,4-d]pyrimidin-2-yl)-pyridin-2-yl]-(4-methyl-pyridin-2-yl)-amine]",> 7.00
16,"Fc1cccc(Nc2cc(-c3nc(N4CCNC(C(F)(F)F)C4)c4c(C5CC5)cncc4n3)ccn2)n1 (centres unmarked) [Example 268, {4-[5-Cyclopropyl-4-(3-trifluoromethyl-piperazin-1-yl)-pyrido[3,4-d]pyrimidin-2-yl]-pyridin-2-yl}-(6-fluoro-pyridin-2-yl)-amine]",6.00 to 7.00
